Tests used:
Test in all cases: NCI 60 cell one-dose screening (SRB)
Format in all cases: cell-based
A498 = settings: Homo sapiens; A498, Renal Cancer; single dose 10 µM, 48 h; read-out: Percentage of cellular growth inhibition
Procedure: (§1) The 60 cancerous cell panel screening was performed following the Developmental Therapeutics Program (DTP) of the National Cancer Institute (NIH-NCI), USA. A single dose of 10 µM was used to perform the screening at 48 h incubation and the results were achieved as cancerous cell growth percentage relative to the no-drug control that was converted to an inhibition percentage by subtracting from 100.The cancerous cell lines were grown in RPMI 1640 medium containing 5% foetal bovine serum and 2 mM L-glutamine at 37 °C, 5% CO2, 95% air and 100% relative humidity for 24 h prior to addition of the tested compounds. After 24 h, two plates of each cell line were fixed in situ with TCA to represent a measurement of the cell population for each cell line at the time of drug addition (Tz). Compounds were dissolved in DMSO at 400-fold the desired final maximum test concentration and stored frozen prior to use. At the time of drug addition, an aliquot of frozen concentrate was thawed and diluted to twice the desired final maximum test concentration with complete medium containing 50 µg/mL gentamicin. Aliquots of 100 µL of the compounds dilution was added to the appropriate micro titre wells already containing 100 µL of medium, resulting in the required final drug concentrations of 10 µM. Following compounds addition, the plates were incubated for an additional 48 h at 37 °C, 5% CO2, 95% air, and 100% relative humidity. For adherent cells, the assay was terminated by the addition of cold TCA. Cells were fixed in situ by the gentle addition of 50 µL of cold 50% (w/v) TCA (final concentration, 10% TCA) and incubated for 60 min at 4 °C. The supernatant was discarded, and the plates were washed five times with tap water and air dried. Sulphorhodamine B (SRB) solution (100 µL) at 0.4% (w/v) in 1% acetic acid is added to each well, and plates are incubated for 10 min at room temperature. After staining, unbound dye was removed by washing five times with 1% acetic acid and the plates were air dried. Bound stain was subsequently solubilised with 10 mM trizma base, and the absorbance was read on an automated plate reader at a wavelength of 515 nm. For suspension cells, the methodology was the same except that the assay was terminated by fixing settled cells at the bottom of the wells by gently adding 50 µL of 80% TCA (final concentration, 16% TCA). Using the seven absorbance measurements [time zero, (Tz), control growth, I, and test growth in the presence of drug at the five concentration levels (Ti)], the percentage growth was calculated as: [(Ti−Tz)/(C−Tz)]×100 for concentrations for which Ti>/=Tz [(Ti−Tz)/Tz]×100 for concentrations for which Ti<Tz.

MCF7 = settings: Homo sapiens; MCF7, Breast Cancer; single dose 10 µM, 48 h; read-out: Percentage of cellular growth inhibition
Procedure: as §1

U251 = settings: Homo sapiens, U-251; U251, CNS Cancer; single dose 10 µM, 48 h; read-out: Percentage of cellular growth inhibition
Procedure: as §1

RXF 393 = settings: Homo sapiens; RXF 393, Renal Cancer; single dose 10 µM, 48 h; read-out: Percentage of cellular growth inhibition
Procedure: as §1

SNB-75 = settings: Homo sapiens; SNB-75, CNS Cancer; single dose 10 µM, 48 h; read-out: Percentage of cellular growth inhibition
Procedure: as §1

UACC-62 = settings: Homo sapiens; UACC-62, Melanoma; single dose 10 µM, 48 h; read-out: Percentage of cellular growth inhibition
Procedure: as §1

786-0 = settings: Homo sapiens; 786-0, Renal Cancer; single dose 10 µM, 48 h; read-out: Percentage of cellular growth inhibition
Procedure: as §1

UACC-257 = settings: Homo sapiens; UACC-257, Melanoma; single dose 10 µM, 48 h; read-out: Percentage of cellular growth inhibition
Procedure: as §1

HOP-62 = settings: Homo sapiens; HOP-62, Non-Small Cell Lung Cancer; single dose 10 µM, 48 h; read-out: Percentage of cellular growth inhibition
Procedure: as §1

SK-MEL-28 = settings: Homo sapiens; SK-MEL-28, Melanoma; single dose 10 µM, 48 h; read-out: Percentage of cellular growth inhibition
Procedure: as §1

SF-268 = settings: Homo sapiens; SF-268, CNS Cancer; single dose 10 µM, 48 h; read-out: Percentage of cellular growth inhibition
Procedure: as §1

NCI-H226 = settings: Homo sapiens; NCI-H226, Non-Small Cell Lung Cancer; single dose 10 µM, 48 h; read-out: Percentage of cellular growth inhibition
Procedure: as §1

OVCAR-4 = settings: Homo sapiens; OVCAR-4, Ovarian Cancer; single dose 10 µM, 48 h; read-out: Percentage of cellular growth inhibition
Procedure: as §1

TK-10 = settings: Homo sapiens; TK-10, Renal Cancer; single dose 10 µM, 48 h; read-out: Percentage of cellular growth inhibition
Procedure: as §1

SK-OV-3 = settings: Homo sapiens; SK-OV-3, Ovarian Cancer; single dose 10 µM, 48 h; read-out: Percentage of cellular growth inhibition
Procedure: as §1

SF-539 = settings: Homo sapiens; SF-539, CNS Cancer; single dose 10 µM, 48 h; read-out: Percentage of cellular growth inhibition
Procedure: as §1

HCC-2998 = settings: Homo sapiens; HCC-2998, Colon Cancer; single dose 10 µM, 48 h; read-out: Percentage of cellular growth inhibition
Procedure: as §1

NCI-H322M = settings: Homo sapiens, Non-Small Cell Lung Cancer, single dose 10 µM, 48 h, read-out: Percentage of cellular growth inhibition
Procedure: as §1

A549/ATCC = settings: Homo sapiens, Non-Small Cell Lung Cancer, single dose 10 µM, 48 h, read-out: Percentage of cellular growth inhibition
Procedure: as §1

UO-31 = settings: Homo sapiens; UO-31, Renal Cancer; single dose 10 µM, 48 h; read-out: Percentage of cellular growth inhibition
Procedure: as §1

HCT-116 = settings: Homo sapiens; HCT-116, Colon Cancer; single dose 10 µM, 48 h; read-out: Percentage of cellular growth inhibition
Procedure: as §1

SMILES	inhibition at 10 µM (A498) [%]	inhibition at 10 µM (MCF7) [%]	inhibition at 10 µM (U251) [%]	inhibition at 10 µM (RXF 393) [%]	inhibition at 10 µM (SNB-75) [%]	inhibition at 10 µM (UACC-62) [%]	inhibition at 10 µM (786-0) [%]	inhibition at 10 µM (UACC-257) [%]	inhibition at 10 µM (HOP-62) [%]	inhibition at 10 µM (SK-MEL-28) [%]	inhibition at 10 µM (SF-268) [%]	inhibition at 10 µM (NCI-H226) [%]	inhibition at 10 µM (OVCAR-4) [%]	inhibition at 10 µM (TK-10) [%]	inhibition at 10 µM (SK-OV-3) [%]	inhibition at 10 µM (SF-539) [%]	inhibition at 10 µM (HCC-2998) [%]	inhibition at 10 µM (NCI-H322M) [%]	inhibition at 10 µM (A549/ATCC) [%]	inhibition at 10 µM (UO-31) [%]	other results
CC(=O)c1sc(Nc2cccc(Nc3nc(C)c(C(C)=O)s3)c2)nc1C [3b, 1,1’-(2,2’-(1,3-Phenylenebis(azanediyl))bis(4-methylthiazole-5,2-diyl))diethanone]	72.3	38.3	34.3	53	37.1	51.2	44.3	11.3	22.2	28.5	28.9	34.6	48.5	46.4	74.2	27.8	19.9	38.3	34.2	67.8	inhibition at 10 µM (HCT-116): 55.8%
Clc1ccc(-c2cs/c(=N\c3ccccc3)n2-c2cccc(-n3c(-c4ccc(Cl)cc4)cs/c3=N\c3ccccc3)c2)cc1 [8c, N,N’-(3,3’-(1,3-phenylene)bis(4–(4-chlorophenyl)thiazole-3(3H)-yl-2(3H)-ylidene))dianiline]	-16.3	23.4	11.1	8.4	14.6	10.5	-6.9	-8.4	-3.3	-1	12.1	16.9	12	-14.1	-29.4	-3	-1.7	-1.2	27.7	17.8	inhibition at 10 µM (HCT-116): 15.7%
CCOC(=O)c1sc(Nc2cccc(Nc3nc(C)c(C(=O)OCC)s3)c2)nc1C [3c, Diethyl 2,2’-(1,3-phenylenebis(azanediyl))bis(4-methylthiazole-5-carboxylate)]	52.7	26.7	16.7	9	2.6	33.1	5.5	10.3	1.2	15.7	14.8	15	33.2	-0.8	1.3	16.2	9.7	3.8	12	32.9	inhibition at 10 µM (HCT-116): 43.5%
c1ccc(-c2csc(Nc3cccc(Nc4nc(-c5ccccc5)cs4)c3)n2)cc1 [6a, N^1,N^3-bis(4-phenylthiazol-2-yl)benzene-1,3-diamine]	14.5	84.4	48.8	36.2	51.4	49.7	49.6	53.9	27	39.1	59.4	33.8	62.4	31.4	2.5	42.3	64.5	41.9	55.8	67.7	inhibition at 10 µM (HCT-116): 60%
NC(=S)Nc1cccc(NC(N)=S)c1 [compound 2, 1,1′-(1,3-phenylene)bis(thiourea)]	-1.2	8.3	11.2	-3.8	2.4	29.5	-7.8	1.9	-19.5	-3.8	9.1	1.9	5.4	-7.3	-25.8	-0.5	-16.9	11.7	6.1	30	inhibition at 10 µM (HCT-116): -7%
Clc1ccc(-c2csc(Nc3cccc(Nc4nc(-c5ccc(Cl)cc5)cs4)c3)n2)cc1 [6c, N^1,N^3-bis(4–(4-chlorophenyl)thiazol-2-yl)benzene-1,3-diamine]	9.8	9.8	2.2	16.7	22.5	17.4	29.2	-20.4	17.7	-4.2	22.6	27.2	8.4	1.4	8.3	13.9	-10.9	5	6.7	21.6	inhibition at 10 µM (HCT-116): 38.5%
Fc1ccc(-c2csc(Nc3cccc(Nc4nc(-c5ccc(F)cc5)cs4)c3)n2)cc1 [6b, N^1,N^3-bis(4–(4-fluorophenyl)thiazol-2-yl)benzene-1,3-diamine]	21.7	75.3	37.3	24.5	4.8	42.9	31.2	25.4	27.3	23.6	42.1	48.5	44.3	5.5	13.2	29.1	64.8	39.9	37.2	68.7	inhibition at 10 µM (HCT-116): 42.3%
